Laboratory results as given in paper PMC8380212, “^18F-labeled tracers targeting fibroblast activation protein” (EJNMMI Radiopharmacy and Chemistry, 2021).

Tests used:
[1] = system: HT-1080-FAP xenografts; assay: Organ distribution (biodistribution) study; assay type: in vivo, BALB/c nu/nu mice
Procedure: Eight-week-old BALB/c nu/nu mice (Charles River) were subcutaneously inoculated with 5 × 10^6 HT-1080-FAP cells. The subcutaneous xenografts were grown at the flanks of the mice. Xenografts were grown to a tumor diameter of 10–15 mm. Mice were anesthetized using isoflurane inhalation. 5–10 MBq of the [^18F]AlF-labeled compounds/ the respective tracer (FAPI-42/52/74/75/76; approx. 0.5 nmol; Am approximately 10–20 GBq/µmol) were injected intravenously for PET imaging. In vivo competition (blocking) experiments with ^68 Ga-FAPI-74 (9 MBq; 18.2 GBq/µmol) were performed by adding 30 nmol of unlabeled FAPI-74 to the injection solution. Images were acquired using a small-animal PET scanner (Inveon, Siemens). Within the first 60 min p.i., a dynamic scan was performed in list mode, followed by a static scan from 120–140 min post injection. Images were reconstructed iteratively using the 3D-OSEM + MAP method (Siemens) and were converted to standardized uptake value (SUV). For the dynamic analysis, 28 frames were reconstructed. Quantification was based on ROI analysis and expressed as SUV.
To reduce radiation exposure, the organ distribution study was performed with 1 MBq per animal. […] The radioactivity was measured using a γ-counter (Packard Cobra II Autogamma, GMI Inc., USA) and expressed as percentage of injected dose per gram of tissue (%ID/g). […]

[2] = biological target: T1, FAP‐transfected HT‐1080‐FAP cells (Homo sapiens, UniProt Q12884); assay: In vitro binding/uptake on FAP-transfected HT-1080-FAP cells; assay type: cell-based; settings: HT1080-FAP cells
T1 construct: expressed in transfected cells; host or cells: HT-1080 cells transfected with FAP (HT-1080-FAP)
T1 sequence (Q12884 1-760): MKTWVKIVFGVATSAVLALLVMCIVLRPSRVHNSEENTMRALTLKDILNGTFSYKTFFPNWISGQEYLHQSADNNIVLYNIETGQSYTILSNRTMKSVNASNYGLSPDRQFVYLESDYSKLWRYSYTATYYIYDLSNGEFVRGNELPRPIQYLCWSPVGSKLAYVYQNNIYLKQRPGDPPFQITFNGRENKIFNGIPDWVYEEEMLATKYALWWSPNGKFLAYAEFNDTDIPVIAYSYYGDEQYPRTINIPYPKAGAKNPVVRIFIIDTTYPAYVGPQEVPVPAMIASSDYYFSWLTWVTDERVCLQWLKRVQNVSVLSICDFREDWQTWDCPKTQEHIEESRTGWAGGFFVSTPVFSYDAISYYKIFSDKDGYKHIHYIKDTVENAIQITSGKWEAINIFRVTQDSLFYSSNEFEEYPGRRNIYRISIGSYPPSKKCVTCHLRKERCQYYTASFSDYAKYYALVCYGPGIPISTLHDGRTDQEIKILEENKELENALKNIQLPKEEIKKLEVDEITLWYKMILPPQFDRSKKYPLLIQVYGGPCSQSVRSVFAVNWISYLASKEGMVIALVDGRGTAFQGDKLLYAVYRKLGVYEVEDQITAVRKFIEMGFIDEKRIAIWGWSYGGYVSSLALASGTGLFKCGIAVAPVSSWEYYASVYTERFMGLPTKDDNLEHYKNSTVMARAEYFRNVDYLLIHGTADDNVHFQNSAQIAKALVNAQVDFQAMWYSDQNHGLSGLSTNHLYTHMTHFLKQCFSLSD
Procedure: (§1) The binding properties of the FAPI derivatives were evaluated using the FAP‐transfected HT‐1080‐FAP and CD26 expressing HEK-CD26 cells. All cells were cultivated in Dulbecco's modified Eagle's medium (DMEM) containing 10% fetal calf serum (FCS) at 37 °C/5% carbon dioxide. Cells were seeded in 6-well plates and cultivated to a final confluence of approximately 80–90% (1.2 to 2.0 × 10^6 cells/well). After washing with FCS free medium, for each well ca. 3 kBq of the radiolabeled compound (10–20 GBq/µmol for [^18F]AlF-labeling) was added to the cells in FCS free medium. On completion of the individual incubation time, cells were washed with PBS and treated with 1.4 mL lysis buffer (0.3 m NaOH, 0.2% SDS) before being transferred to measuring tubes. Competition experiments were performed by co-incubation with the unlabeled precursor for 60 min. Radioactivity was determined in a Wizard Gamma Counter (Perkin Elmer), normalized to 10^6 cells and calculated as percentage of the applied dose (%AD). Each experiment was performed in triplicate.

[3] = system: NSCLC primary tumor and metastases; assay: Clinical PET/CT imaging of a patient with NSCLC; assay type: in vivo, human; settings: for SUVmean / SUVmax: primary tumor and metastases; for SUVmax: 323 MBq i.v.
Procedure: [^18F]AlF-FAPI-74 (16.2 GBq/µmol at time of injection) was applied intravenously (20 nmol; 323 MBq) to a patient with NSCLC. The PET/CT scans were performed 1 and 3 h post tracer administration with a Biograph mCT Flow™ PET/CT-Scanner (Siemens Medical Solutions). The parameters used were slice thickness of 5 mm, increment of 3–4 mm, soft-tissue reconstruction kernel and care dose. After CT scanning, a whole-body PET was acquired in 3D (matrix 200 × 200) in FlowMotion™ with 0.7 cm/min. The emission data were corrected for random, scatter and decay. Reconstruction was conducted with an ordered subset expectation maximization (OSEM) algorithm with 2 iterations/21 subsets and Gauss-filtered to a transaxial resolution of 5 mm at full-width half-maximum. Attenuation correction was performed using the low-dose non-enhanced CT data. The quantitative assessment of standardized uptake values (SUV) was done using a region of interest technique.

[4] = biological target: T2, CD26 expressing HEK-CD26 cells (Homo sapiens, UniProt P27487); assay: In vitro binding on HEK-CD26 cells (negative control); assay type: cell-based
T2 construct: expressed in transfected cells; host or cells: HEK cells transfected with CD26/DPP4 (HEK-CD26)
Procedure: as §1

[5] = biological target: T3, FAP (HT-1080-FAP cells) (Homo sapiens, UniProt Q12884); assay: Competition experiments with unlabeled precursor on HT-1080-FAP cells; assay type: binding; settings: co-incubation with unlabeled precursor for 60 min
T3 construct: expressed in transfected cells; host or cells: HT-1080 cells transfected with FAP (HT-1080-FAP)
T3 sequence (Q12884 1-760): T1 sequence (Q12884 1-760)
Procedure: as §1

T2 sequence (P27487 whole entry): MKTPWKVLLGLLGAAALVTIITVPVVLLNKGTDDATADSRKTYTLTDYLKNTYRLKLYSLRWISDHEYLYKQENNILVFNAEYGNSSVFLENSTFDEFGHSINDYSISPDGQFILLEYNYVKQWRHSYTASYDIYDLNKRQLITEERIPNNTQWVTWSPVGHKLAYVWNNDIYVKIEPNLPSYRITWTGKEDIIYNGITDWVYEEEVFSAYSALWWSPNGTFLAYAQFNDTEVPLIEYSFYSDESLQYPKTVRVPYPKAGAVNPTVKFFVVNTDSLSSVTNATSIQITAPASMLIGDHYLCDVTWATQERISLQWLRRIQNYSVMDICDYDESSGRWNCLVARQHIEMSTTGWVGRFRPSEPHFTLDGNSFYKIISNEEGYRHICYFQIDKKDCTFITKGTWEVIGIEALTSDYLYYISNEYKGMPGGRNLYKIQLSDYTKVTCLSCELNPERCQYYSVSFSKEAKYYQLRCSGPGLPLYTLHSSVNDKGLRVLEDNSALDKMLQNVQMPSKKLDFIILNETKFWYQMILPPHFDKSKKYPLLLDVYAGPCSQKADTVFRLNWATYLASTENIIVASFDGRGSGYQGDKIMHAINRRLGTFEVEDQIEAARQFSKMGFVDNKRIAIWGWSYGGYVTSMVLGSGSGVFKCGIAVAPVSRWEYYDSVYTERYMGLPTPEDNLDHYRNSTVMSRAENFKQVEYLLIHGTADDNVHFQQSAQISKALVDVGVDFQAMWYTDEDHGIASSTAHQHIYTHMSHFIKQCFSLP

## N#C[C@@H]1CCCN1C(=O)CNC(=O)c1ccnc2ccc(OCCCN3CCN(C(=O)CN4CCN(CC(=O)O)CCN(CC(=O)O)CC4)CC3)cc12 [FAPI-74]
[1]; after 30 min, HT-1080-FAP bearing Balb/c nu/nu mice
  tumor uptake: 6.9 %ID/g
[1]; early, discussion
  early tumor uptake: approximately 7 %ID/g
[2]; 10 min incubation
  uptake 10 min: 27.2 ± 0.88 %AD/10^6 cells
[2]; 60 min incubation
  uptake 60 min: 29.7 ± 0.66 %AD/10^6 cells
[2]; 120 min incubation
  uptake 120 min: 30.39 ± 2.47 %AD/10^6 cells
[3]; non-target tissues and blood pool
  excretion route in patient: excreted predominantly via the kidneys
[3]; normal tissues of the patient
  SUV in normal tissues: almost zero
[3]; 1 h
  SUVmean: 3.3 ± 0.6
  SUVmax: 6.5 ± 1.1
[3]; 3 h
  SUVmean: 2.75 ± 0.5
  SUVmax: 5.6 ± 0.7
[4]
  uptake CD26: 0.18 ± 0.04 %AD/10^6 cells
[5]
  EC50: 4.2 nM
